Patent US6235284A, “Synthetic polypeptides belonging to the hepatitis C virus (HCV) and which can be used especially for detecting the latter” (Bio Merieux, priority 1992, dated 2001)

Tests used:
[1] = tested on: anti-HCV antibodies binding onto peptide S42G; assay: Inhibition test: inhibition of binding of anti-HCV antibodies onto peptide S42G by preincubation with peptides; parameters: species or system human; settings: inhibitor 0.1 mg/ml
Description: To evaluate this hypothesis, inhibition tests, whose usefulness lies in the fact that they allow the formation of the antigen-antibody complex in liquid medium, were carried out, thus dispensing with possible artifacts linked to the adsorption of peptides onto a solid support.
The inhibition experiments were carried out by reaction, in liquid phase, of the HCV sera with the peptides followed by reaction of the remaining antibodies with the peptide adsorbed onto the microplates. The inhibitory peptides are incubated at a concentration of 0.1 mg/ml with sera of appropriate dilution. The rest of the manipulation is identical to that described for the ELISA test.
Peptide S18D (SEQ ID NO:11), or V22G (SEQ ID NO:12), or a mixture of both, is preincubated overnight in the presence of the serum to be tested. The antibodies can bind onto the corresponding sites.

[2] = tested on: anti-HCV antibodies (HCV-positive sera); assay: ELISA detection of anti-HCV antibodies in HCV-positive sera with adsorbed peptides; type: binding, human
Description: The reactivity of these three peptides towards the sera of individuals infected with the hepatitis C virus, termed (HCV) positive, was evaluated in an ELISA test according to the procedure described below.
Detection of anti-HCV Antibodies by ELISA
The wells of a microtiter plate of "NUNC MAXISORB™" trademark are saturated with 100 μl of a solution containing the peptide or a mixture of peptides (10 μg/ml) for 2 hours at 37° C. The plate is then emptied, then washed with a wash buffer containing 0.05% TWEEN™ 20(polysorbate 20). The wells are saturated with 100 μl of wash buffer supplemented with 10% goat serum (v/v), then incubated for 30 minutes at 37° C., then washed again as above. The sera to be analyzed are diluted to the appropriate dilution with saturation buffer. The incubation of the sera is 1 hour at 37° C. The wells are again washed. The solution of conjugate (goat IgG to human IgG labelled with peroxidase) at a dilution of 1/1000 in the saturation buffer is then added and the incubation lasts for 90 minutes at 37° C. After washing, the solution of orthophenylenediamine substrate is added. After 10 minutes, the reaction is stopped with 50 μl of H2 SO4 and the optical density is read at 492 nm. It should be noted that all the tests were carried out in duplicate.
For that, the different peptides are adsorbed on the microplates at a concentration of 10 μg/ml and the sera are used at 1/100 dilution.
The values obtained, which are collated in Table 1 below, correspond to the optical density (OD) multiplied by 10^3, at 492 nm.
For each serum the experiment was carried out in duplicate. The **** are values outside the upper scale.
The different peptides are absorbed onto microplates at a concentration of 10 μg/ml and the sera are used at the dilution stated.
The values obtained, which are collated in Table 2 below, correspond to the optical density at 492 nm. All the experiments were carried out in duplicate.
Each serum was, in a first instance, tested at the dilution 1/100.
The values given correspond to the optical density read at 492 nm multiplied by the factor 10^3.

## S18D: a peptide of 20 amino acids covering sequence 2 to 21 of the CORE protein (STNPKPQRKTKRNTNRRPQD)
[1]; serum B4, 1/10,000
  inhibition: 16.8%
[1]; serum P5, 1/10,000
  inhibition: 3.5%
[1]; serum P7, 1/10,000
  inhibition: 8.4%
[1]; serum P8, 1/10,000
  inhibition: 1.4%
[1]; serum P18, 1/10,000
  inhibition: 10.6%
[1]; serum P22, 1/10,000
  inhibition: 6.6%
[1]; serum P25, 1/10,000
  inhibition: 14.1%
[1]; serum P31, 1/10,000
  inhibition: 2.0%
[1]; serum P37, 1/10,000
  inhibition: 43.6%
[1]; serum P38, 1/10,000
  inhibition: 8.9%
[2]; Table 2, line 68, serum not named (below CTS), 1/100
  optical density at 492 nm: 2.500 OD
[2]; Table 2, line 69, serum not named (below CTS), 1/1000
  optical density at 492 nm: 2.500 OD
[2]; Table 2, line 70, serum not named (below CTS), 1/10000
  optical density at 492 nm: 0.347 OD
[2]; Table 2, line 75, serum B4, 1/1000
  optical density at 492 nm: 1.250 OD
[2]; Table 2, line 76, serum B4, 1/1000 (so in the source)
  optical density at 492 nm: 0.171 OD
[2]; Table 2, serum B1, 1/100
  optical density at 492 nm: 1.859 OD
[2]; Table 2, serum B2, 1/100
  optical density at 492 nm: 1.781 OD
[2]; Table 2, serum B3, 1/100
  optical density at 492 nm: 1.244 OD
[2]; Table 2, serum B4, 1/100
  optical density at 492 nm: 2.500 OD
[2]; Table 2, serum B5, 1/100
  optical density at 492 nm: 2.032 OD
[2]; Table 2, serum B6, 1/100
  optical density at 492 nm: 2.500 OD
[2]; Table 2, serum B7, 1/100
  optical density at 492 nm: 2.500 OD
[2]; Table 2, serum B8, 1/100
  optical density at 492 nm: 1.362 OD
[2]; Table 2, serum B9, 1/100
  optical density at 492 nm: 0.808 OD
[2]; Table 2, serum B10, 1/100
  optical density at 492 nm: 0.099 OD
[2]; Table 2, serum B11, 1/100
  optical density at 492 nm: 2.324 OD
[2]; Table 2, serum B12, 1/100
  optical density at 492 nm: 1.375 OD
[2]; Table 2, serum B13, 1/100
  optical density at 492 nm: 0.370 OD
[2]; Table 2, serum B14, 1/100
  optical density at 492 nm: 0.072 OD
[2]; Table 2, serum B15, 1/100
  optical density at 492 nm: 0.090 OD
[2]; Table 2, serum B16, 1/100
  optical density at 492 nm: 2.500 OD
[2]; Table 2, serum CTS, 1/100
  optical density at 492 nm: 2.500 OD
[2]; Table 2, serum CTS, 1/1000
  optical density at 492 nm: 2.500 OD
[2]; Table 2, serum CTS, 1/10000
  optical density at 492 nm: 0.295 OD
[2]; Table 2, serum P1, 1/100
  optical density at 492 nm: 0.012 OD
[2]; Table 2, serum P2, 1/100
  optical density at 492 nm: 0.020 OD
[2]; Table 2, serum P3, 1/100
  optical density at 492 nm: 0.162 OD
[2]; Table 2, serum P4, 1/100
  optical density at 492 nm: 0.982 OD
[2]; Table 2, serum P5, 1/100
  optical density at 492 nm: 2.500 OD
[2]; Table 2, serum P5, 1/1000
  optical density at 492 nm: 2.317 OD
[2]; Table 2, serum P5, 1/10000
  optical density at 492 nm: 0.399 OD
[2]; Table 2, serum P6, 1/100
  optical density at 492 nm: 0.007 OD
[2]; Table 2, serum P7, 1/100
  optical density at 492 nm: 2.500 OD
[2]; Table 2, serum P7, 1/1000
  optical density at 492 nm: 0.854 OD
[2]; Table 2, serum P7, 1/10000
  optical density at 492 nm: 0.165 OD
[2]; Table 2, serum P8, 1/100
  optical density at 492 nm: 2.500 OD
[2]; Table 2, serum P8, 1/1000
  optical density at 492 nm: 2.500 OD
[2]; Table 2, serum P8, 1/10000
  optical density at 492 nm: 0.681 OD
[2]; Table 2, serum P9, 1/100
  optical density at 492 nm: 0.019 OD
[2]; Table 2, serum P10, 1/100
  optical density at 492 nm: 0.028 OD
[2]; Table 2, serum P11, 1/100
  optical density at 492 nm: 0.383 OD
[2]; Table 2, serum P12, 1/100
  optical density at 492 nm: 2.500 OD
[2]; Table 2, serum P12, 1/1000
  optical density at 492 nm: 2.500 OD
[2]; Table 2, serum P12, 1/10000
  optical density at 492 nm: 0.454 OD
[2]; Table 2, serum P13, 1/100
  optical density at 492 nm: 0.012 OD
[2]; Table 2, serum P14, 1/100
  optical density at 492 nm: 0.907 OD
[2]; Table 2, serum P15, 1/100
  optical density at 492 nm: 2.500 OD
[2]; Table 2, serum P16, 1/100
  optical density at 492 nm: 0.225 OD
[2]; Table 2, serum P17, 1/100
  optical density at 492 nm: 0.297 OD
[2]; Table 2, serum P18, 1/100
  optical density at 492 nm: 2.500 OD
[2]; Table 2, serum P18, 1/1000
  optical density at 492 nm: 0.297 OD
[2]; Table 2, serum P18, 1/10000
  optical density at 492 nm: 0.095 OD
[2]; Table 2, serum P19, 1/100
  optical density at 492 nm: 0.011 OD
[2]; Table 2, serum P20, 1/100
  optical density at 492 nm: 1.433 OD
[2]; Table 2, serum P21, 1/100
  optical density at 492 nm: 0.111 OD
[2]; Table 2, serum P22, 1/100
  optical density at 492 nm: 2.500 OD
[2]; Table 2, serum P22, 1/1000
  optical density at 492 nm: 1.142 OD
[2]; Table 2, serum P22, 1/10000
  optical density at 492 nm: 0.146 OD
[2]; Table 2, serum P23, 1/100
  optical density at 492 nm: 0.015 OD
[2]; Table 2, serum P24, 1/100
  optical density at 492 nm: 0.015 OD
[2]; Table 2, serum P25, 1/100
  optical density at 492 nm: 2.500 OD
[2]; Table 2, serum P25, 1/1000
  optical density at 492 nm: 2.199 OD
[2]; Table 2, serum P25, 1/10000
  optical density at 492 nm: 0.329 OD
[2]; Table 2, serum P26, 1/100
  optical density at 492 nm: 2.500 OD
[2]; Table 2, serum P26, 1/1000
  optical density at 492 nm: 2.500 OD
[2]; Table 2, serum P26, 1/10000
  optical density at 492 nm: 0.957 OD
[2]; Table 2, serum P27, 1/100
  optical density at 492 nm: 1.425 OD
[2]; Table 2, serum P28, 1/100
  optical density at 492 nm: 0.115 OD
[2]; Table 2, serum P29, 1/100
  optical density at 492 nm: 0.000 OD
[2]; Table 2, serum P30, 1/100
  optical density at 492 nm: 0.483 OD
[2]; Table 2, serum P31, 1/100
  optical density at 492 nm: 2.500 OD
[2]; Table 2, serum P31, 1/1000
  optical density at 492 nm: 1.975 OD
[2]; Table 2, serum P31, 1/10000
  optical density at 492 nm: 0.183 OD
[2]; Table 2, serum P32, 1/100
  optical density at 492 nm: 1.046 OD
[2]; Table 2, serum P33, 1/100
  optical density at 492 nm: 1.307 OD
[2]; Table 2, serum P34, 1/100
  optical density at 492 nm: 2.500 OD
[2]; Table 2, serum P35, 1/100
  optical density at 492 nm: 2.500 OD
[2]; Table 2, serum P36, 1/100
  optical density at 492 nm: 0.115 OD
[2]; Table 2, serum P37, 1/100
  optical density at 492 nm: 2.500 OD
[2]; Table 2, serum P37, 1/1000
  optical density at 492 nm: 0.523 OD
[2]; Table 2, serum P37, 1/10000
  optical density at 492 nm: 0.102 OD
[2]; Table 2, serum P38, 1/100
  optical density at 492 nm: 2.500 OD
[2]; Table 2, serum P38, 1/1000
  optical density at 492 nm: 0.753 OD
[2]; Table 2, serum P38, 1/10000
  optical density at 492 nm: 0.099 OD
[2]; Table 2, serum P39, 1/100
  optical density at 492 nm: 2.500 OD
[2]; Table 2, serum P40, 1/100
  optical density at 492 nm: 2.500 OD
[2]; Table 2, serum P41, 1/100
  optical density at 492 nm: 1.579 OD
[2]; Table 2, serum P42, 1/100
  optical density at 492 nm: 0.000 OD
[2]; in words
  reactivity towards HCV-positive sera: react
